Reference: US7837991B2, “Method of cancer treatment by p53 protein control” (Aventis Pharma, S.A., priority 1994, dated 2010)

What was measured:
[1] = test system: calpains of the cytoplasmic extract; assay: Degradation of p53 proteins by endogenous calpains in cytoplasmic extracts of Daudi or Jurkat cells; assay type: biochemical, human; conditions: in the presence of calcium
Description: 2.1. Degradation by the endogenous calpains: mouse and human wild-type p53 proteins, as well as certain mutated forms (cf Example 1) were translated in the reticulocyte lysate and were then incubated in the presence of cytoplasmic extracts of Daudi or Jurkat human lymphoblastoid cells. The cytoplasmic extracts were prepared in the following manner: the cells (available at the ATCC) were cultured in DMEM medium supplemented with 10% foetal calf serum. The cells were then harvested, washed in PBS buffer and then incubated for 5 min in a detergent-free hypotonic lysis buffer (HEPES 20 mM, pH 7.5; KOAc 10 mM; MgOAc 1.5 mM; 2 ml per 5×10^8 cells). The lysis was completed using a Dounce homogenizer and then checked under a microscope. The nuclei were then removed by centrifugation at 2000 g for 5 min, and the supernatants were centrifuged at 10,000 g for 1 hour (Beckman SW60). The cytoplasmic extracts were then aliquoted in an amount of 5 to 12 mg/ml.

bovine m-calpain = molecular target: T1, bovine m-calpain (Bos taurus, UniProt Q27971); assay: Degradation of p53 proteins by exogenous m-calpain in rabbit reticulocyte lysate; assay type: biochemical; conditions: m-calpain plus calcium, mouse and human wild-type and mutated p53
T1 construct: purchased Sigma
T1 sequence (Q27971 20-700 limits assumed): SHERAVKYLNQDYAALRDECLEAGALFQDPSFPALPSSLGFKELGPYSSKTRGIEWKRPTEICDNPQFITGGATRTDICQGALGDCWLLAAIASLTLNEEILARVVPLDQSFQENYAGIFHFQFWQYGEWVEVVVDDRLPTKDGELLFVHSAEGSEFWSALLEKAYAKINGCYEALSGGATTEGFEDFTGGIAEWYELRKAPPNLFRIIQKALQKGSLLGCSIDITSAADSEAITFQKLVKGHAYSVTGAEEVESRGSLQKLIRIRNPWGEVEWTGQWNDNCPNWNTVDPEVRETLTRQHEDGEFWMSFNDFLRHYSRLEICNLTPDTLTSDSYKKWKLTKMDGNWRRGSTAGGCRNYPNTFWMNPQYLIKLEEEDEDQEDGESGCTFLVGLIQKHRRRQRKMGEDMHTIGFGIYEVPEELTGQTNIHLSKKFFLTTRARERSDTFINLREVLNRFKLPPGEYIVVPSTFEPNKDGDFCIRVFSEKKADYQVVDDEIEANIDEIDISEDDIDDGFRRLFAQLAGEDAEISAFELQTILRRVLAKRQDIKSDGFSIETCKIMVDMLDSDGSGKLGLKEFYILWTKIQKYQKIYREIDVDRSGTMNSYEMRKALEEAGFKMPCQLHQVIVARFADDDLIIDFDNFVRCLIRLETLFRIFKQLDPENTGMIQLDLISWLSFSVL
T1 sequence (P13135 1-263 partner): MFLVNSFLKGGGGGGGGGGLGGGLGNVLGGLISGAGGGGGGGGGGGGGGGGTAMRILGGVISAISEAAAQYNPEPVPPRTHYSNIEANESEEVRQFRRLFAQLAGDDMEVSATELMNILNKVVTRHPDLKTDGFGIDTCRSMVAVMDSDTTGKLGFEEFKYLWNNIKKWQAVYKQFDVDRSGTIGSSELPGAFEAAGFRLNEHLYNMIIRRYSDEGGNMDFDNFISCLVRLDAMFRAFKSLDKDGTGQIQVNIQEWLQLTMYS
Source text: 1.1. […] The proteins thus obtained are resistant to any degradation, even in the presence of a high concentration of calcium (cofactor essential for the calpains). The addition of bovine m-calpain (Sigma) to the reticulocyte lysate in the presence of calcium led to the rapid disappearance of the neosynthesized proteins and the appearance of proteolytic fragments which are resolvable by electrophoresis. The degradation resistance of other proteins such as dihydrofolate reductase or glyceraldehyde-3-phosphate dehydrogenase under the same experimental conditions indicates the substrate specificity of the reaction.
1.2. Use of inhibitors of calpain for modulating the levels of p53 proteins: in the above Example 1.1., it was shown that the addition of m-calpain induced degradation of the p53 proteins. In this example, in addition to m-calpain, various compounds were introduced into the medium in order to test their capacity to inhibit the activity of calpain.

Molecule: CC(=O)N[C@@H](CC(C)C)C(=O)N[C@@H](CC(C)C)C(=O)N[C@H](C=O)CCCNC(=N)N [leupeptin]
- effect on calcium-dependent degradation of p53 proteins in cytoplasmic extracts [1]: show that the degradation of these proteins is dependent on the calpains

Molecule: O=C(O)CN(CCOCCOCCN(CC(=O)O)CC(=O)O)CC(=O)O [EGTA]
- inhibition of the degradation of the p53 proteins induced by the exogenous calpain (bovine m-calpain): capable of inhibiting the degradation of the p53 proteins

Molecule: O=S(=O)(F)Cc1ccccc1 [PMSF]
- effect on calcium-dependent degradation of p53 proteins in cytoplasmic extracts [1]: show that the degradation of these proteins is dependent on the calpains

Molecule: aprotinin
- effect on calcium-dependent degradation of p53 proteins in cytoplasmic extracts [1]: show that the degradation of these proteins is dependent on the calpains

B1: soybean trypsin inhibitor (protein, UniProt P01070 25-205, looked up)
Trypsin inhibitor A: DFVLDNEGNPLENGGTYYILSDITAFGGIRAAPTGNERCPLTVVQSRNELDKGIGTIISSPYRIRFIAEGHPLSLKFDSFAVIMLCVGIPTEWSVVEDLPEGPAVKIGENKDAMDGWFRLERVSDDEFNNYKLVFCPQQAEDDKCGDIGISIDHDDGTRRLVVSKNKPLVVQFQKLDKESL
- effect on calcium-dependent degradation of p53 proteins in cytoplasmic extracts [1]: show that the degradation of these proteins is dependent on the calpains
